From patent US10988477B2 (Merck Patent GmbH, priority 2018, dated 2021)

How the values were obtained:
GCN2 kinase = GCN2 kinase (Homo sapiens, UniProt Q9P2K8); assay: GCN2 enzyme inhibition assay (Transcreener ADP2 fluorescence polarization); type: biochemical; conditions: compounds of Formula II; 280 μM ATP, 4 nM GCN2 kinase
How it was run: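 4 nM GCN2 + 200 μM (RS)7 + compound (0–8 μM), 10 min preinc.; start with ATP (280 μM final); 1 h, 25 °C; pH 7.5 Tris/NaCl/MgCl2/DTT; ADP FP readout; IC50, Ki(app) via tight-binding fit.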

[1] = target: intracellular GCN2 (phosphorylation of the GCN2 substrate eIF2α) (Homo sapiens, UniProt Q9P2K8); assay: GCN2 cellular inhibition assay (AlphaScreen SureFire P-eIF2α Ser51, borrelidin-treated U2OS cells); type: cell-based; conditions: compounds of Formula II; biomarker assay, phosphorylated eIF2α Ser51 in borrelidin-treated U2OS cells
Sequence of intracellular GCN2 (phosphorylation of the GCN2 substrate eIF2α) (Q9P2K8 whole entry): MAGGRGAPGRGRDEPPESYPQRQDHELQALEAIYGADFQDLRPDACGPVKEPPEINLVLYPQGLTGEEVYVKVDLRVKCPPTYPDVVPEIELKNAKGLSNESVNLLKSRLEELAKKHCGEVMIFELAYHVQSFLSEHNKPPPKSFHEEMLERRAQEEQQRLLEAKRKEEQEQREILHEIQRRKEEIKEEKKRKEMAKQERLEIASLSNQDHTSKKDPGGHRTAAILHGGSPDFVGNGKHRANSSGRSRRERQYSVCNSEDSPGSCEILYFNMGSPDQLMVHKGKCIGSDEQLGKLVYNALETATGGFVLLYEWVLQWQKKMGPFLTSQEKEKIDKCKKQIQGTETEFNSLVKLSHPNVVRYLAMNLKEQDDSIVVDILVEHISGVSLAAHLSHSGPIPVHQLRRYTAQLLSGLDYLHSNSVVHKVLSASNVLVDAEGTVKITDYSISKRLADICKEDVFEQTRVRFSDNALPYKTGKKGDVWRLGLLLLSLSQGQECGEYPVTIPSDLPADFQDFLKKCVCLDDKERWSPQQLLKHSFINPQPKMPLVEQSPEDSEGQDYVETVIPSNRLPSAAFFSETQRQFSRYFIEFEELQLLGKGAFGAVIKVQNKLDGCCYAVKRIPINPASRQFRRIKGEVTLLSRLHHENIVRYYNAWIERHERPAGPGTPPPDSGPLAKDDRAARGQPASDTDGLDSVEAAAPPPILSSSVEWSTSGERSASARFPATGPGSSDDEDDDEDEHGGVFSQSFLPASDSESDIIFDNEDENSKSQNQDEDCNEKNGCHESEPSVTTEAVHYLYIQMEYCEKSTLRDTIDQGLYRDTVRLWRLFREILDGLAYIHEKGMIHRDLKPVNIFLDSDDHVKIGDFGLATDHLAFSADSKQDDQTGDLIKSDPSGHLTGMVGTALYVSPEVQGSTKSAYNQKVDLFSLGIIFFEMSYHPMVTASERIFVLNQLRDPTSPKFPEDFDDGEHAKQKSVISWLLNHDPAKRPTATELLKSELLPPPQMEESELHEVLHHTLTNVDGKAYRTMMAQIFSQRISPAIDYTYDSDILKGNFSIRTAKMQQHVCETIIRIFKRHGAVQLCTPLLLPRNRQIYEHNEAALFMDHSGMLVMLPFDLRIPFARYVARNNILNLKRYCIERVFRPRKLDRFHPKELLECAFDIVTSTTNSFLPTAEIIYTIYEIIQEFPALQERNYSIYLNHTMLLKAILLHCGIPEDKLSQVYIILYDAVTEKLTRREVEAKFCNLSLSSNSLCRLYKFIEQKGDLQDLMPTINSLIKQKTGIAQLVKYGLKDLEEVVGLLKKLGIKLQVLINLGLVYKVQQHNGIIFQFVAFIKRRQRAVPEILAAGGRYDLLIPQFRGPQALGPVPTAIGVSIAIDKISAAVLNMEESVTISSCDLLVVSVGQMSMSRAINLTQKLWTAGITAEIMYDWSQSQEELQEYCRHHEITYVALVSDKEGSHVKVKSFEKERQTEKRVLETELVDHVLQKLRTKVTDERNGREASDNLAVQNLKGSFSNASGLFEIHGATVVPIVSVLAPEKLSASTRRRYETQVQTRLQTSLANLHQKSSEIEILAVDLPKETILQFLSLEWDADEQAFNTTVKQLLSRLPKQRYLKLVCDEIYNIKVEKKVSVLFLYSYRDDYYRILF
How it was run: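 U2OS cells, adhered overnight, received compounds in 4-fold serial dilutions from 40 μM final, then 10 μM borrelidin for 1 h at 37 °C. Lysates were read by AlphaScreen for phospho-eIF2α Ser51; percent inhibition was set against borrelidin-only wells.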

Sequence of GCN2 kinase (Q9P2K8 whole entry): as above

Row | SMILES | Ki (GCN2 kinase) [µM] | IC50 [1] [µM]
1 | O=C1NCCC12CCCN(c1cc(-c3cnc4ccc(C(F)F)nn34)ccn1)C2 (stereo not drawn) [II-156, 7-(4-(6-(Difluoromethyl)imidazo[1,2-b]pyridazin-3-yl)pyridin-2-yl)-2,7-diazaspiro[4.5]decan-1-one] | 0.01 to 1 | 0.5 to 5
2 | CS(=O)(=O)NCC1(O)CCCN(c2cc(-c3cnc4ccc(C(F)F)nn34)ncn2)C1 (stereo not drawn) [II-158, N-((1-(6-(6-(Difluoromethyl)imidazo[1,2-b]pyridazin-3-yl)pyrimidin-4-yl)-3-hydroxypiperidin-3-yl)methyl)methanesulfonamide] | 0.01 to 1 | 0.5 to 5
3 | O=C1CN(c2cc(-c3cnc4ccc(C(F)F)nn34)ccn2)CC2(CC2)N1 [II-160, 7-(4-(6-(Difluoromethyl)imidazo[1,2-b]pyridazin-3-yl)pyridin-2-yl)-4,7-diazaspiro[2.5]octan-5-one] | 0.01 to 1 | 0.5 to 5
4 | FC(F)c1ccc2ncc(-c3ccnc(N4CCC5(CCNCC5)CC4)c3)n2n1 [II-161, 3-(2-(3,9-Diazaspiro[5.5]undecan-3-yl)pyridin-4-yl)-6-(difluoromethyl)imidazo[1,2-b]pyridazine] | 0.01 to 1 | > 5
5 | OCC1CCCN(c2cc(-c3cnc4ccc(C(F)F)nn34)ccn2)C1 (stereo not drawn) [II-162, (1-(4-(6-(Difluoromethyl)imidazo[1,2-b]pyridazin-3-yl)pyridin-2-yl)piperidin-3-yl)methanol] | 0.01 to 1 | 0.5 to 5
6 | CC(=O)N1CCCN(c2cc(-c3cnc4ccc(C(F)F)nn34)ccn2)CC1 [II-163, 1-(4-(4-(6-(Difluoromethyl)imidazo[1,2-b]pyridazin-3-yl)pyridin-2-yl)-1,4-diazepan-1-yl)ethanone] | 0.01 to 1 | 0.5 to 5
7 | O=C1CCN(c2cc(-c3cnc4ccc(C(F)F)nn34)ccn2)CCN1 [II-164, 1-(4-(6-(Difluoromethyl)imidazo[1,2-b]pyridazin-3-yl)pyridin-2-yl)-1,4-diazepan-5-one] | 0.01 to 1 | 0.5 to 5
8 | O=C1CCC2CN(c3cc(-c4cnc5ccc(C(F)F)nn45)ccn3)CCN12 (stereo not drawn) [II-167, 2-(4-(6-(Difluoromethyl)imidazo[1,2-b]pyridazin-3-yl)pyridin-2-yl)hexahydropyrrolo[1,2-a]pyrazin-6(2H)-one] | 0.01 to 1 | > 5
9 | OCCC1CCN(c2cc(-c3cnc4ccc(C(F)F)nn34)ccn2)CC1 [II-168, 2-(1-(4-(6-(Difluoromethyl)imidazo[1,2-b]pyridazin-3-yl)pyridin-2-yl)piperidin-4-yl)ethanol] | 0.01 to 1 | 0.5 to 5
10 | COCC(=O)N1CCN(c2cc(-c3cnc4ccc(C(F)F)nn34)ccn2)CC1 [II-170, 1-(4-(4-(6-(Difluoromethyl)imidazo[12-b]pyridazin-3-yl)pyridin-2-yl)piperazin-1-yl)-2-methoxyethanone] | 0.01 to 1 | 0.5 to 5
11 | CC(=O)N1CCN(c2cncc(-c3cnc4ccc(C(F)F)nn34)c2)CC1 [II-171, 1-(4-(5-(6-(Difluoromethyl)imidazo[12-b]pyridazin-3-yl)pyridin-3-yl)piperazin-1-yl)ethanone] | 0.01 to 1 | 0.5 to 5
12 | O=C1NCC2CN(c3cc(-c4cnc5ccc(C(F)F)nn45)ccn3)CCN12 (stereo not drawn) [II-172, 7-(4-(6-(Difluoromethyl)imidazo[1,2-b]pyridazin-3-yl)pyridin-2-yl)hexahydroimidazo[1,5-a]pyrazin-3(2H)-one] | 0.01 to 1 | 0.5 to 5
13 | O=C1NCC2CN(c3cc(-c4cnc5ccc(C(F)F)nn45)ccn3)CCN12 (stereo not drawn) [II-173, 7-(4-(6-(Difluoromethyl)imidazo[1,2-b]pyridazin-3-yl)pyridin-2-yl)hexahydroimidazo[1,5-a]pyrazin-3(2H)-one] | 0.01 to 1 | 0.5 to 5
14 | FC(F)c1ccc2ncc(-c3ccnc(N4CCn5cnnc5C4)c3)n2n1 [II-174, 7-(4-(6-(Difluoromethyl)imidazo[1,2-b]pyridazin-3-yl)pyridin-2-yl)-5,6,7,8-tetrahydro-[1,2,4]triazolo[4,3-a]pyrazine] | 0.01 to 1 | > 5
15 | O=C1NCC2CN(c3cc(-c4cnc5ccc(C(F)F)nn45)ccn3)CCN12 (stereo not drawn) [II-175, 7-(4-(6-(Difluoromethyl)imidazo[1,2-b]pyridazin-3-yl)pyridin-2-yl)hexahydroimidazo[1,5-a]pyrazin-3(2H)-one] | 0.01 to 1 | 0.5 to 5
16 | CC(=O)N1CCN(c2cc(-c3cnc4ccc(C(F)F)nn34)ccn2)CC1 [II-176, 1-(4-(4-(6-(Difluoromethyl)imidazo[1,2-b]pyridazin-3-yl)pyridin-2-yl)piperazin-1-yl)ethanone] | 0.01 to 1 | 0.5 to 5
17 | O=C(NCCO)N1CCCC(c2cc(-c3cnc4ccc(C(F)F)nn34)ncn2)C1 (stereo not drawn) [II-178, 3-(6-(6-(difluoromethyl)imidazo[1,2-b]pyridazin-3-yl)pyrimidin-4-yl)-N-(2-hydroxyethyl)piperidine-1-carboxamide] | 0.01 to 1 | 0.5 to 5
18 | FC(F)c1ccc2ncc(-c3cc(C4CCCN(C5COC5)C4)ncn3)n2n1 (stereo not drawn) [II-180, 6-(Difluoromethyl)-3-(6-(1-(oxetan-3-yl)piperidin-3-yl)pyrimidin-4-yl)imidazo[1,2-b]pyridazine] | 0.01 to 1 | > 5
19 | CS(=O)(=O)N1CC2CCN(c3cc(-c4cnc5ccc(C(F)F)nn45)ncn3)CC21 (stereo not drawn) [II-181, 6-(Difluoromethyl)-3-(6-(8-(methylsulfonyl)-3,8-diazabicyclo[4.2.0]octan-3-yl)pyrimidin-4-yl)imidazo[1,2-b]pyridazine] | > 1 | > 5
20 | CC(=O)N1CCN(c2cc(-c3cnc4ccc(OC(F)F)nn34)ccn2)CC1 [II-182, 1-(4-(4-(6-(Difluoromethoxy)imidazo[1,2-b]pyridazin-3-yl)pyridin-2-yl)piperazin-1-yl)ethanone] | 0.01 to 1 | > 5
21 | CC(=O)N1CCN(c2cc(-c3cnc4ccc(CO)nn34)ccn2)CC1 [II-185, 1-(4-(4-(6-(Hydroxymethyl)imidazo[1,2-b]pyridazin-3-yl)pyridin-2-yl)piperazin-1-yl)ethanone] | 0.01 to 1 | > 5
22 | CC(=O)N1CCN(c2cc(-c3cnc4ccc(C(F)F)nn34)ncn2)CC1 [II-186, 1-(4-(6-(6-(Difluoromethyl)imidazo[1,2-b]pyridazin-3-yl)pyrimidin-4-yl)piperazin-1-yl)ethan-1-one] | 0.01 to 1 | 0.5 to 5

Next, values leading:

Row | Ki (GCN2 kinase) [µM] | IC50 [1] [µM] | SMILES
23 | < 0.01 | < 0.5 | CS(=O)(=O)NC[C@H]1CCCN(c2cc(-c3cnc4ccc(C(F)F)nn34)ccn2)C1 [II-154, (S)—N-((1-(4-(6-(Difluoromethyl)imidazo[1,2-b]pyridazin-3-yl)pyridin-2-yl)piperidin-3-yl)methyl)methanesulfonamide]
24 | 0.01 to 1 | 0.5 to 5 | CS(=O)(=O)NC[C@@H]1CCCN(c2cc(-c3cnc4ccc(C(F)F)nn34)ccn2)C1 [II-155, (R)—N-((1-(4-(6-(Difluoromethyl)imidazo[1,2-b]pyridazin-3-yl)pyridin-2-yl)piperidin-3-yl)methyl)methanesulfonamide]
25 | < 0.01 | < 0.5 | CS(=O)(=O)NCC1CCCN(c2cc(-c3cnc4ccc(C(F)F)nn34)ccn2)C1 (stereo not drawn) [II-157, N-((1-(4-(6-(Difluoromethyl)imidazo[1,2-b]pyridazin-3-yl)pyridin-2-yl)piperidin-3-yl)methyl)methanesulfonamide]
26 | 0.01 to 1 | 0.5 to 5 | CC(NS(C)(=O)=O)C1CN(c2cc(-c3cnc4ccc(C(F)F)nn34)ncn2)CCO1 (stereo not drawn) [II-159, N-(1-(4-(6-(6-(Difluoromethyl)imidazo[1,2-b]pyridazin-3-yl)pyrimidin-4-yl)morpholin-2-yl)ethyl)methanesulfonamide]
27 | 0.01 to 1 | > 5 | OC[C@@H]1CN(c2cc(-c3cnc4ccc(C(F)F)nn34)ccn2)CCN1 [II-169, (S)-(4-(4-(6-(Difluoromethyl)imidazo[1,2-b]pyridazin-3-yl)pyridin-2-yl)piperazin-2-yl)methanol]
28 | < 0.01 | < 0.5 | CC(NS(C)(=O)=O)C1CN(c2cc(-c3cnc4ccc(C(F)F)nn34)ncn2)CCO1 (stereo not drawn) [II-177, N-(1-(4-(6-(6-(Difluoromethyl)imidazo[1,2-b]pyridazin-3-yl)pyrimidin-4-yl)morpholin-2-yl)ethyl)methanesulfonamide]
29 | 0.01 to 1 | 0.5 to 5 | CNc1ccc2ncc(-c3ccnc(N4CCCC(CNS(C)(=O)=O)C4)c3)n2n1 (stereo not drawn) [II-179, N-((1-(4-(6-(Methylamino)imidazo[1,2-b]pyridazin-3-yl)pyridin-2-yl)piperidin-3-yl)methyl)methanesulfonamide]
30 | 0.01 to 1 | 0.5 to 5 | Cc1ccc2ncc(-c3ccnc(N4CCCC(CNS(C)(=O)=O)C4)c3)n2n1 (stereo not drawn) [II-183, N-((1-(4-(6-Methylimidazo[1,2-b]pyridazin-3-yl)pyridin-2-yl)piperidin-3-yl)methyl)methanesulfonamide]
31 | 0.01 to 1 | 0.5 to 5 | CS(=O)(=O)NCC1CN(c2cc(-c3cnc4ccc(Cl)nn34)ccn2)CCO1 (stereo not drawn) [II-184, N-((4-(4-(6-Chloroimidazo[1,2-b]pyridazin-3-yl)pyridin-2-yl)morpholin-2-yl)methyl)methanesulfonamide]
32 | 0.01 to 1 | > 5 | O=C1CCN(c2cc(-c3cnc4ccc(Cl)nn34)ccn2)CCN1 [II-187, 1-(4-(6-Chloroimidazo[1,2-b]pyridazin-3-yl)pyridin-2-yl)-1,4-diazepan-5-one]
33 | 0.01 to 1 | 0.5 to 5 | Clc1ccc2ncc(-c3ccnc(N4CCC5CNCC5C4)c3)n2n1 (stereo not drawn) [II-188]
